The source of these data is patent publication EP1509519B1, “CRYSTALLINE FLUOROQUINOLONE ARGININE SALT FORM” (Wockhardt Limited, priority 2002, dated 2003).

“And” between values parts separate entries of the source, which are not always exact repeats. Identical values can stand only once.

Series [1] can be described thus: bulk density determination. It is filed as physicochemical. From the text: Untapped density = 25 g/untapped volume. […] Tapped density = 25 g/Tapped volume.
The nature of series [2]: bioavailability. The arrangement: species or system mammals. Conditions: in vivo.
Series [3] in a line: mean mass diameter determination (laser diffraction). Conditions: for Mean mass diameter: individual samples made by the procedure of example 1, laser diffraction.
Series [4] in a line: antimicrobial activity.
For series [5] the following is noted: water.

In the case of `C[C@H]1CCc2c(N3CCC(O)CC3)c(F)cc3c(=O)c(C(=O)O)cn1c23`, in series [1] (25 gm/tapped volume, tapped 150 times), the “Bulk density (tapped)” value turned out to be 0.64 g/mL. Besides, the “Bulk density (untapped)” value in series [1] (25 gm/untapped volume) came to 0.57 g/mL. The bioavailability result in series [2] is “favorable bioavailability”. For the same compound, the Mean mass diameter entry was “less than or equal to 40 µm” in series [3] (hydrate); 32.92 µm and 24.22 µm and 34.51 µm and 39.07 µm in series [3] (listed as Example 1, hydrate). Besides, the “Mean mass diameter, mean value” in series [3] (mean of four samples) is 32.68 µm.

In the case of `CC1CCc2c(N3CCC(O)CC3)c(F)cc3c(=O)c(C(=O)O)cn1c23.N=C(N)NCCCC(N)C(=O)O` (racemic) [R, S-9-fluoro-6,7-dihydro-8-(4-hydroxypiperidin-1-yl)-5-methyl-1-oxo-1H,5H-benzo [i,j]-quinolizine-2-carboxylic acid DL-arginine salt], the antimicrobial activity entry in series [4] is listed as “have antimicrobial activity”.

In the case of `CC1CCc2c(N3CCC(O)CC3)c(F)cc3c(=O)c(C(=O)O)cn1c23.N=C(N)NCCC[C@H](N)C(=O)O` (racemic) [RS-(±)-9-fluoro-6,7-dihydro-8-(4-hydroxypiperidin-1-yl)-5-methyl-1-oxo-1H,5H-benzo[i,j]quinolizine-2-carboxylic acid L-arginine salt], the antimicrobial activity result in series [4] was “have antimicrobial activity”.

Regarding `CC1CCc2c(N3CCC(O)CC3)c(F)cc3c(=O)c(C(=O)O)cn1c23.N=C(N)NCCC[C@@H](N)C(=O)O` (racemic) [RS-(±)-9-fluoro-6,7-dihydro-8-(4-hydroxypiuenidin-1-yl)-5-methyl-1-oxo-1H,5H-benzo[i,j]quinolizine-2-carboxylic acid D-argirrine salt], the antimicrobial activity entry in series [4] was “have antimicrobial activity”.

With `C[C@@H]1CCc2c(N3CCC(O)CC3)c(F)cc3c(=O)c(C(=O)O)cn1c23.N=C(N)NCCC[C@H](N)C(=O)O` [R-(+)-9-fluoro-6,7-dihydro-8-(4-hydroxypipe-1-yl)-5-1-oxo-1H,5H-benzo[i,j]quinolizine-2-carboxylic acid L-arginine salt], the antimicrobial activity result in series [4] was “have antimicrobial activity”.

As to `C[C@@H]1CCc2c(N3CCC(O)CC3)c(F)cc3c(=O)c(C(=O)O)cn1c23.N=C(N)NCCC[C@@H](N)C(=O)O` [R-(+)-9-fluoro-6,7-dihydro-8-(4-hydroxypiperidin-1-yl)-5-methyl-1-oxo-1H,5H-benzo[i,j]quinolizine-2-carboxylic acid D-arginine salt], in series [4], the antimicrobial activity result was “have antimicrobial activity”.

In general, aqueous solubility refers to the dissolved amount per volume that the medium holds. Read a low aqueous solubility as a poorly soluble substance. With `C[C@H]1CCc2c(N3CCC(O)CC3)c(F)cc3c(=O)c(C(=O)O)cn1c23` [reference compound], the “antimicrobial activity compared with the R-(+)- and RS-(±)-acids” value in series [4] is “more potent antimicrobial activity”. Also, in series [5], the aqueous solubility was in the range of 800 to 2000 µg/mL.

As for “R-(+)-9-fluoro-6,7-dihydro-8-(4-hydroxypiperidin-1-yl)-5-methyl-1-oxo-1H,5H-benzo [ij]-quinolizine-2-carboxylic acid DL-arginine salt”, the antimicrobial activity result in series [4] is recorded as “have antimicrobial activity”.

With “S-(-)-9-fluoro-6,7-dihydro-8-(4-hydroxypiperidin-1-yl)-5-methyl-1-oxo-1H,5H-benzo [ij]-quinolizine-2-carboxylic acid DL-arginine salt”, in series [4], the antimicrobial activity entry is listed as “have antimicrobial activity”.
